Data on one compound can be found in patent publication US20130236501A1, “Injectable Emulsion of Sedative Hypnotic Agent” (ASTRAZENECA AB, priority 2010, published 2013).

≈ marks a conversion by molar mass, not a printed value.

By solubility is commonly meant how much of the substance goes into solution per volume. Read a high solubility as a readily soluble substance.

This data set in a line: Water solubility of Compound A. The class given is physicochemical. The procedure: Agents for sedation and anaesthesia are frequently administered by intravenous injection, a form of administration for which the agents need to be in a water-miscible form. Compound A, however, is an oleaginous compound with a water solubility of about 2 mg/ml. Such a compound is considered “slightly soluble” in the solubility definitions in General Notices 5.30 of the United States Pharmacopeia, USP33-NF28, published by the United States Pharmacopeial Convention Inc., Rockville, Md. In the case of Compound A, this solubility is not optimal for a therapeutically useful dose to be prepared simply by dissolution in water. The preparation of slightly soluble medicinal compounds for intravenous administration has been the subject of considerable investigation, but remains a significant challenge in the development of new therapeutic agents. Several drug delivery systems have been investigated for such compounds. In the present application, emulsions, in which droplets of oil, in which the drug is itself dissolved, are dispersed in an aqueous medium with the aid of an emulsifier and other suitable excipients and processing. A similar method is used for the commercial formulation of propofol, (2,6-diisopropyl-phenol), which is commercially available as Diprivan® Injectable Emulsion at concentrations of 1% and 2%. Oil-in-water emulsions comprising propofol are described in WO 96/29064.

Consider `CCCOC(=O)Cc1ccc(OCC(=O)N(CC)CC)c(OCC)c1` [Compound A, [3-ethoxy-4-[(N,N-diethylcarbamido)methoxy]phenyl]acetic acid n-propyl ester], for which the solubility was ~2000 µg/mL (≈ 5.69 mM).
